Reference: patent US20250215039A1, “NUCLEOSIDES FOR TREATING CANCER” (PRIMEFOUR THERAPEUTICS, INC., priority 2022, published 2025)
pIC50: −log10 of the molar value. Like-named read-outs stand apart in the source and are kept apart here.

Assays:
[1] = system: cancer cell lines; assay: Cancer cell proliferation activity (CellTiterGlo, 72 h); type: cell-based; conditions: 72 h, 72 h, read-out: IC50
Method in brief: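 Cells seeded overnight at 37 °C, then dosed with compound at 0.1% final DMSO and incubated 72 h at 37 °C (5% or 10% CO2 by medium).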

[2] = target: human cytidine deaminase (CDA) (Homo sapiens, UniProt P32320); assay: Metabolism by human cytidine deaminase (CDA), substrate absorbance at 290 nm
human cytidine deaminase (CDA), sequence (P32320 whole entry): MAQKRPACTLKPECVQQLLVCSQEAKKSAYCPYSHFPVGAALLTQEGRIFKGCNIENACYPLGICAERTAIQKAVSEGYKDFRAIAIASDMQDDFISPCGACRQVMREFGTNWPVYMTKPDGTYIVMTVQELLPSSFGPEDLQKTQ
Description: Transfer 7.2 μl of each of the substrate DMSO stock in step 2 into a 500 μl 96-Well V-bottom Microplate, clear SBS footprint, cat #P-96-450V-C
Add 352.8 μl assay buffer to the wells
For deaminated product compounds mix 4 μl product with 196 μl assay buffer
This was incubated at 37° C. for 1 h. 200 μl of this mixture was transferred into the assay plate to serve as the product control.
Product+buffer: mix 80 ul of the 2.5× intermediate product stocks (from step 3) with 120 ul assay buffer into product control (no enzyme) wells
Incubate the plate alongside the 20 nM CDA enzyme intermediate stock at 37° C. to temperature equilibrate reagents
Add 120 μl of the 20 nM enzyme mix into the Substrate+CDA wells and start reading at 290 nm every 30 s for about 60 min
50 and 200 uM substrate and product
In 100 mM Tris, pH 7.5, 100 mM KCl, 0.8% carryover DMSO
5 min incubation at 37° C.
Absorbance at 290 nm every 30 s at 37° C. for 1 h using FlexStation 3
Convert A290 to concentration of substrate remaining at time t after enzyme addition:
[formula] • where: • St=absorbance reading of: substrate+CDA wells at time t • So=Average absorbance reading of: substrate+buffer wells • Po=Average absorbance reading of: product+buffer wells • [S]t=initial substrate concentration • Use GraphPad to plot [substrate] against time to calculate initial velocity or slope (μMs^−1) i.e. the linear range of each curve • Express rate in s^−1 by dividing initial velocity by the total enzyme concentration.
Plot rate against [substrate] and fit data to standard Michaelis Menten equation to obtain kcat and KM parameters.

N#C[C@]1(CO)O[C@@H](n2cc(F)c(N)nc2=O)C[C@@H]1O [Cpd. No. 6, (2R,3S,5R)-5-(4-amino-5-fluoro-2-oxopyrimidin-1(2H)-yl)-3-hydroxy-2-(hydroxymethyl)tetrahydrofuran-2-carbonitrile]
pIC50 ([1]; 5637 cell line (bladder)): < 4.30 | pIC50 ([1]; CLS439 cell line (bladder)): < 4.30 | pIC50 ([1]; HS729 cell line (muscle)): < 4.30 | pIC50 ([1]; JAR cell line (placenta)): < 4.30 | pIC50 ([1]; U20S cell line, bone): < 4.30 | pIC50 ([1]; Homo sapiens, 22Rv1, 72 h, 22RV1 cell line (prostate)): < 4.30 | pIC50 ([1]; Homo sapiens, 786-0, 72 h, 786O cell line (kidney)): < 4.30 | pIC50 ([1]; Homo sapiens, A204, 72 h, A204 cell line (muscle)): 5.14 | pIC50 ([1]; Homo sapiens, A549, 72 h, A549 cell line, lung): < 4.30 | pIC50 ([1]; Homo sapiens, A673, 72 h, A673 cell line (bone)): < 4.30 | pIC50 ([1]; Homo sapiens, A2780, 72 h, A2780 cell line (ovary)): < 4.30 | pIC50 ([1]; Homo sapiens, A-375, 72 h, A375 cell line (skin)): < 4.30 | pIC50 ([1]; Homo sapiens, A-431, 72 h, A431 cell line (skin)): < 4.30 | pIC50 ([1]; Homo sapiens, ACHN, ACHN cell line (kidney)): < 4.30 | pIC50 ([1]; Homo sapiens, ASPC1, 72 h, ASPC1 cell line (pancreas)): < 4.30 | pIC50 ([1]; Homo sapiens, BT-20, 72 h, BT20 cell line (breast)): < 4.30 | pIC50 ([1]; Homo sapiens, BXPC-3, 72 h, BXPC3 cell line (pancreas)): < 4.30 | pIC50 ([1]; Homo sapiens, C-33-A, C33A cell line, endometrial): < 4.30 | pIC50 ([1]; Homo sapiens, CAKI-1, 72 h, CAKI1 cell line (kidney)): < 4.30 | pIC50 ([1]; Homo sapiens, COLO 205, 72 h, COLO205 cell line (colon)): < 4.30 | pIC50 ([1]; Homo sapiens, COLO-678, 72 h, COLO678 cell line (colon)): < 4.30 | pIC50 ([1]; Homo sapiens, Ca-Ski, CASKI cell line, endometrial): < 4.30 | pIC50 ([1]; Homo sapiens, Caco-2, 72 h, CACO2 cell line (colon)): < 4.30 | pIC50 ([1]; Homo sapiens, Calu-6, 72 h, CALU6 cell line (lung)): < 4.30 | pIC50 ([1]; Homo sapiens, DLD-1, 72 h, DLD1 cell line (colon)): < 4.30 | pIC50 ([1]; Homo sapiens, DU-145, 72 h, DU145 cell line (prostate)): < 4.30 | pIC50 ([1]; Homo sapiens, EFO-21, 72 h, EFO21 cell line (ovary)): < 4.30 | pIC50 ([1]; Homo sapiens, EJ-28, 72 h, EJ28 cell line (bladder)): < 4.30 | pIC50 ([1]; Homo sapiens, Granta-519, 72 h, GRANTA-519 cell line (hematological)): 6.34 | pIC50 ([1]; Homo sapiens, HCT-15, 72 h, HCT15 cell line (colon)): < 4.30 | pIC50 ([1]; Homo sapiens, HCT-116, 72 h, HCT116 cell line (colon)): < 4.30 | pIC50 ([1]; Homo sapiens, HEK293, 72 h, HEK293 cell line (kidney)): < 4.30 | pIC50 ([1]; Homo sapiens, HL-60, 72 h, HL-60 cell line (hematological)): < 4.30 | pIC50 ([1]; Homo sapiens, HT-29, 72 h, HT29 cell line (colon)): < 4.30 | pIC50 ([1]; Homo sapiens, HT-1080, 72 h, HT1080 cell line (connective tissue)): < 4.30 | pIC50 ([1]; Homo sapiens, HeLa, HELA cell line, endometrial): < 4.30 | pIC50 ([1]; Homo sapiens, HepG2, 72 h, HEPG2 cell line (liver)): < 4.30 | pIC50 ([1]; Homo sapiens, Hs-578T, HS578T cell line, breast): < 4.30 | pIC50 ([1]; Homo sapiens, IGROV-1, 72 h, IGROV1 cell line (ovary)): < 4.30 | pIC50 ([1]; Homo sapiens, IMR-90, 72 h, IMR90 cell line, lung): < 4.30 | pIC50 ([1]; Homo sapiens, J82, 72 h, J82 cell line (bladder)): < 4.30 | pIC50 ([1]; Homo sapiens, JEG-3, 72 h, JEG3 cell line (placenta)): < 4.30 | pIC50 ([1]; Homo sapiens, JIMT-1, 72 h, JIMT1 cell line (breast)): < 4.30 | pIC50 ([1]; Homo sapiens, K562, 72 h, K-562 cell line (hematological)): < 4.30 | pIC50 ([1]; Homo sapiens, Kasumi 1, 72 h, KASUMI-1 cell line (hematological)): < 4.30 | pIC50 ([1]; Homo sapiens, L-363, 72 h, L-363 cell line (hematological)): < 4.30 | pIC50 ([1]; Homo sapiens, LoVo, LOVO cell line (colon)): < 4.30 | pIC50 ([1]; Homo sapiens, MCF7, 72 h, MCF7 cell line (breast)): < 4.30 | pIC50 ([1]; Homo sapiens, MDA-MB-231, 72 h, MDAMB231 cell line (breast)): < 4.30 | pIC50 ([1]; Homo sapiens, MDA-MB-435, 72 h, MDAMB435 cell line (skin)): < 4.30 | pIC50 ([1]; Homo sapiens, MDA-MB-436, 72 h, MDAMB436 cell line (breast)): < 4.30 | pIC50 ([1]; Homo sapiens, MDA-MB-468, 72 h, MDAMB468 cell line (breast)): < 4.30 | pIC50 ([1]; Homo sapiens, MG-63, 72 h, MG63 cell line (bone)): < 4.30 | pIC50 ([1]; Homo sapiens, MHH-ES-1, 72 h, MHHES1 cell line (bone)): < 4.30 | pIC50 ([1]; Homo sapiens, MIA PaCa-2, 72 h, MIAPACA2 cell line (pancreas)): < 4.30 | pIC50 ([1]; Homo sapiens, MINO, MINO cell line (hematological)): 6.17 | pIC50 ([1]; Homo sapiens, MV4-11, 72 h, MV4-11 cell line (hematological)): < 4.30 | pIC50 ([1]; Homo sapiens, NCI-H23, 72 h, NCI-H23 cell line (lung)): < 4.30 | pIC50 ([1]; Homo sapiens, NCI-H82, 72 h, NCIH82 cell line (lung)): < 4.30 | pIC50 ([1]; Homo sapiens, NCI-H292, 72 h, NCIH292 cell line (lung)): < 4.30 | pIC50 ([1]; Homo sapiens, NCI-H460, 72 h, NCIH460 cell line (lung)): < 4.30 | pIC50 ([1]; Homo sapiens, OVCAR-3, 72 h, OVCAR3 cell line (ovary)): < 4.30 | pIC50 ([1]; Homo sapiens, OVCAR-4, 72 h, OVCAR4 cell line (ovary)): < 4.30 | pIC50 ([1]; Homo sapiens, PANC-1, 72 h, PANC1 cell line (pancreas)): < 4.30 | pIC50 ([1]; Homo sapiens, PC-3, 72 h, PC3 cell line (prostate)): < 4.30 | pIC50 ([1]; Homo sapiens, PLC-PRF-5, 72 h, PLCPRF5 cell line (liver)): < 4.30 | pIC50 ([1]; Homo sapiens, Panc1005, 72 h, PANC1005 cell line (pancreas)): < 4.30 | pIC50 ([1]; Homo sapiens, RD, RD cell line (muscle)): < 4.30 | pIC50 ([1]; Homo sapiens, Ramos, RAMOS cell line (hematological)): 5.06 | pIC50 ([1]; Homo sapiens, SAOS-2, 72 h, SAOS2 cell line (bone)): 5.69 | pIC50 ([1]; Homo sapiens, SF-268, 72 h, SF268 cell line (brain)): < 4.30 | pIC50 ([1]; Homo sapiens, SF-295, 72 h, SF295 cell line (brain)): < 4.30 | pIC50 ([1]; Homo sapiens, SK-BR-3, 72 h, SKBR3 cell line (breast)): < 4.30 | pIC50 ([1]; Homo sapiens, SK-HEP1, 72 h, SKHEP1 cell line (liver)): < 4.30 | pIC50 ([1]; Homo sapiens, SK-LMS-1, 72 h, SKLMS1 cell line (uterus)): < 4.30 | pIC50 ([1]; Homo sapiens, SK-MEL-5, 72 h, SKMEL5 cell line, skin): < 4.30 | pIC50 ([1]; Homo sapiens, SK-MEL-28, 72 h, SKMEL28 cell line (skin)): < 4.30 | pIC50 ([1]; Homo sapiens, SK-N-AS, SKNAS cell line (brain)): < 4.30 | pIC50 ([1]; Homo sapiens, SK-N-SH, SKNSH cell line (brain)): < 4.30 | pIC50 ([1]; Homo sapiens, SK-OV-3, 72 h, SKOV3 cell line (ovary)): < 4.30 | pIC50 ([1]; Homo sapiens, SNB-75, 72 h, SNB75 cell line (brain)): < 4.30 | pIC50 ([1]; Homo sapiens, SU-DHL10, 72 h, SU-DHL-10 cell line (hematological)): 5.59 | pIC50 ([1]; Homo sapiens, SU-DHL-6, 72 h, SU-DHL-6 cell line (hematological)): < 4.30 | pIC50 ([1]; Homo sapiens, SW-620, 72 h, SW620 cell line (colon)): < 4.30 | pIC50 ([1]; Homo sapiens, T-24, 72 h, T24 cell line (bladder)): < 4.30 | pIC50 ([1]; Homo sapiens, TE-671, 72 h, TE671 cell line (muscle)): < 4.30 | pIC50 ([1]; Homo sapiens, THP-1, 72 h, THP-1 cell line (hematological)): < 4.30 | pIC50 ([1]; Homo sapiens, U-87 MG, U87MG cell line (brain)): < 4.30 | pIC50 ([1]; Homo sapiens, UMUC3, 72 h, UMUC3 cell line (bladder)): < 4.30 | pIC50 ([1]; Homo sapiens, UO-31, 72 h, UO31 cell line (kidney)): < 4.30 | pIC50 ([1]; Homo sapiens, WSU-NHL, WSU-NHL cell line (hematological)): 5.63 | pIC50 ([1]; MT-3, 72 h, MT3 cell line (breast)): < 4.30 | pIC50 ([1]; NCI-H358M, NCIH358M cell line (lung)): < 4.30 | pIC50 ([1]; PBMC, PBMC (hematological)): < 4.30 | pIC50 ([1]; RD-ES, RDES cell line (bone)): < 4.30 | metabolism (deamination) by human CDA (line graph) ([2]; 12 nM CDA, 50 and 200 uM substrate, 37° C., pH 7.5, figure legends FIG. 4-9): not metabolized | substrate conversion by CDA (Inactive) ([2]; rate of substrate conversion at 200 μM, could not be fitted): Inactive
